According to patent US10351553B2, “Potassium channel modulators” (Cadent Therapeutics, Inc., priority 2017, dated 2019):
≈ marks a conversion by molar mass, not a printed value.

Legend:
[1] = biological target: T1, SK2 channels (Homo sapiens, UniProt Q9H2S1); assay: Whole-cell patch-clamp of SK2 current in HEK293 cells expressing SK2 channels; assay type: cell-based; settings: Table 2; concentration that produces doubling of channel current; averages from later experiments
T1 construct: expressed in transfected cells; host or cells: HEK293
Experimental: The biological activity was determined as follows. The ionic current through small-conductance Ca^2+-activated K^+ channels (SK channels, subtype 2) was measured using the whole-cell configuration of the patch-clamp technique in a patch-clamp set-up using HEK293 tissue culture cells expressing SK2 channels as described in Hougaard et al., British Journal of Pharmacology 151, 655-665, May 8, 2007, the entire teachings of which are incorporated herein by reference. In one aspect, a compound is defined to be an SK Positive Allosteric Modulator (PAM) if the compound increases current in this assay, for example, if the SC100 value of the compound is less than or equal to 10 μM as determined by this assay. The SC100 value is defined to be the concentration of compound that increases the basal current by 100%.

[2] = Brain free fraction by equilibrium dialysis in rat brain tissue homogenate; assay type: in vitro ADME; settings: 10% rat brain tissue homogenate, Tables 2 and 3
Experimental: The extent to which compounds modulate SK2 channels in vivo is expressed as % SK2 SC100, which is the ratio of the concentration of the drug free in the brain to the measured potency of the compound on the SK2 channel. It is calculated as follows: CFB=CMB×BFF, where CMB is the concentration of compound measured by liquid chromatography mass spectrometry from brains harvested immediately following tremor recording (Table 1, “Measured Brain Concentration”). CFB is the amount of free compound not complexed with protein and therefore free to interact with the SK2 channel (Table 1, “Calculated Free Brain Concentration”). BFF is average free fraction of compound as measured by equilibrium dialysis in separate experiments (1 uM test concentration incubated in 10% rat brain tissue homogenate for 5 hours at 37° C.) (Table 1, “Brain Free Fraction”). Free drug in brain available to interact with SK2 channels (CFB) is arrived at by multiplying the measured total brain level (CMB) by the average free fraction (BFF).

[3] = Aqueous (kinetic) solubility, shake-flask, phosphate buffer pH 7.4; assay type: physicochemical; settings: 23 °C, kinetic from dmso stock, phosphate buffer pH 7.4, 16 hours at room temperature
Experimental: Aqueous solubility (kinetic solubility) tests of the compounds were performed in phosphate buffer saline (pH 7.4) measured by shake-flask method. In this assay, DMSO stock solution of test compound is added to buffer followed by equilibration (shaking), filtration and determination of soluble amount by HPLC-UV Conditions used in the assay are summarized below.

Structure (SMILES)	SK2 potency (SC100) [1]	fraction unbound at 5 h, 1 uM [2]	solubility kinetic at 16 h [3]
Cc1ccn(-c2nc(N[C@@H]3CCCC[C@H]3F)cc(N3CCOCC3)n2)n1 [Comparator B, reference compound]	5.8 µM	–	–
COc1cc(NC2CCC(F)(F)CC2)nc(-c2nc(C)cs2)n1 [Compound 3, N-(4,4-difluorocyclohexyl)-6-methoxy-2-(4-methylthiazol-2-yl) pyrimidin-4-amine]	–	0.0269	70.9 µg/mL (≈ 208 µM)
Cc1cc(C)n(-c2nc(Nc3ccc(Cl)cc3)cc(N3CCOCC3)n2)n1 [Comparator C, reference compound]	–	0.0016	1 µg/mL (≈ 2.6 µM)
Cc1csc(-c2nc(NC3CCC(F)(F)CC3)cc([C@H](C)O)n2)n1 (single isomer, unassigned) [Compound 5]	–	0.042	80.3 µg/mL (≈ 227 µM)
COc1cc(NC2CCC(F)(F)CC2)nc(-n2nc(C)cc2C)n1 [Compound 2, N-(4,4-difluorocyclohexyl)-2-(3,5-dimethyl-1H-pyrazol-1-yl)-6-methoxypyrimidin-4-amine]	–	0.0276	31 µg/mL (≈ 91.9 µM)

More lines, now with the values ahead:

SK2 potency (SC100) [1]	fraction unbound at 5 h, 1 uM [2]	solubility kinetic at 16 h [3]	Structure (SMILES)
–	0.0155	49.7 µg/mL (≈ 123 µM)	FC1(F)CCC(Nc2cc(N3CCOCC3)nc(-n3ccc(C4CC4)n3)n2)CC1 [Compound 7, 2-(3-cyclopropyl-1H-pyrazol-1-yl)-N-(4,4-difluorocyclohexyl)-6-morpholinopyrimidin-4-amine]
–	0.0431	66.7 µg/mL (≈ 188 µM)	Cc1csc(-c2nc(NC3CCC(F)(F)CC3)cc([C@@H](C)O)n2)n1 (single isomer, unassigned) [Compound 6]
